Measured values taken from patent US20200368247A1, “CENICRIVIROC FOR THE TREATMENT OF FIBROSIS” (Tobira Therapeutics, Inc., priority 2014, published 2020).
Marks after values point to notes of the source that are not given here.

Legend:
Type in all cases: in vivo, human
[1] = Study 202 post-hoc APRI and FIB-4 fibrosis index scores
Method: APRI and FIB-4 scores were calculated. Change in score category from baseline (BL) to Weeks 24 and 48 was assessed in patients with non-missing data. Correlations between changes from BL in APRI and FIB-4 scores, and MCP-1 (CCR2 ligand) and sCD14 (inflammatory biomarker) levels were evaluated.

[2] = Study 202 ECG abnormalities; details: through Week 48
[3] = Study 202 fasting metabolic laboratory parameters; details: All CVC (N = 115); EFV (N = 28), through Week 48
From the text: All abnormalities in total cholesterol, LDL cholesterol, triglycerides, or glucose were Grade 1 or Grade 2.
Mean baseline values and changes from baseline in HbA1c, HOMA-IR, fasting LDL, fasting HDL, fasting total cholesterol, fasting total cholesterol/HDL ratio, and fasting triglycerides are shown in Table 36.

[4] = All CVC (N = 115), EFV (N = 28)

CCCCOCCOc1ccc(-c2ccc3c(c2)/C=C(/C(=O)Nc2ccc([S@@+]([O-])Cc4cncn4CCC)cc2)CCCN3CC(C)C)cc1 [CVC, (S)-8-[4-(2-Butoxyethoxy)phenyl]-1-isobutyl-N-(4-{[(1-propyl-1H-imidazol-5-yl)methyl]sulfinyl}phenyl)-1,2,3,4-tetrahydro-1-benzazocine-5-carboxamide]
APRI 0.5-1.5, patients ([1]; Baseline): 14%
APRI <0.5, patients ([1]; Baseline): 84%
APRI >1.5, patients ([1]; Baseline): 2%
FIB-4 1.45-3.25, patients ([1]; Baseline): 17%
FIB-4 <1.45, patients ([1]; Baseline): 82%
FIB-4 >3.25, patients ([1]; Baseline): 1%
APRI 0.5-1.5, patients ([1]; Week 24): 7%
APRI <0.5, patients ([1]; Week 24): 93%
APRI decreased 1 category from baseline, patients ([1]; Week 24): 14%
FIB-4 1.45-3.25, patients ([1]; Week 24): 7%
FIB-4 <1.45, patients ([1]; Week 24): 93%
FIB-4 decreased 1 category from baseline, patients ([1]; Week 24): 13%
APRI 0.5-1.5, patients ([1]; Week 48): 8%
APRI <0.5, patients ([1]; Week 48): 91%
APRI >1.5, patients ([1]; Week 48): 1%
APRI decreased 1 category from baseline, patients ([1]; Week 48): 10%
FIB-4 1.45-3.25, patients ([1]; Week 48): 5%
FIB-4 <1.45, patients ([1]; Week 48): 94%
FIB-4 >3.25, patients ([1]; Week 48): 1%
FIB-4 decreased 1 category from baseline, patients ([1]; Week 48): 14%
subjects with improvements in APRI and FIB-4 scores over time ([1]; pooled CVC 100 mg and 200 mg): ≥ 10%
HR Abnormally high (120 bpm ≤ abnormally high) [2, 4]: 0 n (%)
HR Abnormally low (≤ 50 bpm) [2, 4]: 0 n (%)
PR Abnormally high (210 ms ≤ abnormally high) [2, 4]: 3 (3%) n (%)
QRS Abnormally high (120 ms ≤ abnormally high) [2, 4]: 1 (1%)^d n (%)
QRS Abnormally low (≤ 50 ms) [2, 4]: 0 n (%)
QTcB interval Borderline (450 ms ≤ borderline ≤ 480 ms) [2, 4]: 6 (6%) n (%)
QTcB interval Increase by >30-60 ms [2, 4]: 9 (9%) n (%)
QTcB interval Increase by >60 ms [2, 4]: 1 (1%) n (%)
QTcB interval Pathologically prolonged (> 500 ms) [2, 4]: 0 n (%)
QTcB interval Prolonged (480 ms < prolonged ≤ 500 ms) [2, 4]: 0 n (%)
QTcF interval Borderline (450 ms ≤ borderline ≤ 480 ms) [2, 4]: 2 (2%) n (%)
QTcF interval Increase by >30-60 ms [2, 4]: 7 (7%) n (%)
QTcF interval Increase by >60 ms [2, 4]: 1 (1%) n (%)
QTcF interval Pathologically prolonged (> 500 ms) [2, 4]: 0 n (%)
QTcF interval Prolonged (480 ms < prolonged ≤ 500 ms) [2, 4]: 0 n (%)
HR Abnormally high (120 bpm ≤ abnormally high) ([2]; CVC 100 mg (N = 58)): 0 n (%)
HR Abnormally low (≤ 50 bpm) ([2]; CVC 100 mg (N = 58)): 0 n (%)
PR Abnormally high (210 ms ≤ abnormally high) ([2]; CVC 100 mg (N = 58)): 2 (3%) n (%)
QRS Abnormally high (120 ms ≤ abnormally high) ([2]; CVC 100 mg (N = 58)): 1 (2%)^d n (%)
QRS Abnormally low (≤ 50 ms) ([2]; CVC 100 mg (N = 58)): 0 n (%)
QTcB interval Borderline (450 ms ≤ borderline ≤ 480 ms) ([2]; CVC 100 mg (N = 58)): 4 (8%) n (%)
QTcB interval Increase by >30-60 ms ([2]; CVC 100 mg (N = 58)): 6 (12%) n (%)
QTcB interval Increase by >60 ms ([2]; CVC 100 mg (N = 58)): 1 (2%) n (%)
QTcB interval Pathologically prolonged (> 500 ms) ([2]; CVC 100 mg (N = 58)): 0 n (%)
QTcB interval Prolonged (480 ms < prolonged ≤ 500 ms) ([2]; CVC 100 mg (N = 58)): 0 n (%)
QTcF interval Borderline (450 ms ≤ borderline ≤ 480 ms) ([2]; CVC 100 mg (N = 58)): 1 (2%) n (%)
QTcF interval Increase by >30-60 ms ([2]; CVC 100 mg (N = 58)): 4 (8%) n (%)
QTcF interval Increase by >60 ms ([2]; CVC 100 mg (N = 58)): 1 (2%) n (%)
QTcF interval Pathologically prolonged (> 500 ms) ([2]; CVC 100 mg (N = 58)): 0 n (%)
QTcF interval Prolonged (480 ms < prolonged ≤ 500 ms) ([2]; CVC 100 mg (N = 58)): 0 n (%)
HR Abnormally high (120 bpm ≤ abnormally high) ([2]; CVC 200 mg (N = 57)): 0 n (%)
HR Abnormally low (≤ 50 bpm) ([2]; CVC 200 mg (N = 57)): 0 n (%)
PR Abnormally high (210 ms ≤ abnormally high) ([2]; CVC 200 mg (N = 57)): 1 (2%) n (%)
QRS Abnormally high (120 ms ≤ abnormally high) ([2]; CVC 200 mg (N = 57)): 0 n (%)
QRS Abnormally low (≤ 50 ms) ([2]; CVC 200 mg (N = 57)): 0 n (%)
QTcB interval Borderline (450 ms ≤ borderline ≤ 480 ms) ([2]; CVC 200 mg (N = 57)): 2 (4%) n (%)
QTcB interval Increase by >30-60 ms ([2]; CVC 200 mg (N = 57)): 3 (6%) n (%)
QTcB interval Increase by >60 ms ([2]; CVC 200 mg (N = 57)): 0 n (%)
QTcB interval Pathologically prolonged (> 500 ms) ([2]; CVC 200 mg (N = 57)): 0 n (%)
QTcB interval Prolonged (480 ms < prolonged ≤ 500 ms) ([2]; CVC 200 mg (N = 57)): 0 n (%)
QTcF interval Borderline (450 ms ≤ borderline ≤ 480 ms) ([2]; CVC 200 mg (N = 57)): 1 (2%) n (%)
QTcF interval Increase by >30-60 ms ([2]; CVC 200 mg (N = 57)): 3 (6%) n (%)
QTcF interval Increase by >60 ms ([2]; CVC 200 mg (N = 57)): 0 n (%)
QTcF interval Pathologically prolonged (> 500 ms) ([2]; CVC 200 mg (N = 57)): 0 n (%)
QTcF interval Prolonged (480 ms < prolonged ≤ 500 ms) ([2]; CVC 200 mg (N = 57)): 0 n (%)
Any fasting laboratory abnormality, worst Grade 1 [3]: 9 (8%) n (%)
Any fasting laboratory abnormality, worst Grade 2 [3]: 7 (6%) n (%)
Any fasting laboratory abnormality, worst Grade 3 [3]: 0 n (%)
Any fasting laboratory abnormality, worst Grade 4 [3]: 0 n (%)
Any graded (Grade 1-4) fasting laboratory abnormality [3]: 16 (14%) n (%)
Fasting LDL cholesterol abnormality, Grade 1 [3]: 3 (3%) n (%)
Fasting LDL cholesterol abnormality, Grade 2 [3]: 3 (3%) n (%)
Fasting LDL cholesterol abnormality, Grade 3 [3]: 0 n (%)
Fasting LDL cholesterol abnormality, Grade 4 [3]: 0 n (%)
Fasting LDL cholesterol abnormality, any grade [3]: 6 (5%) n (%)
Fasting glucose (serum, high) abnormality, Grade 1 [3]: 3 (3%) n (%)
Fasting glucose (serum, high) abnormality, Grade 2 [3]: 2 (2%) n (%)
Fasting glucose (serum, high) abnormality, Grade 3 [3]: 0 n (%)
Fasting glucose (serum, high) abnormality, Grade 4 [3]: 0 n (%)
